From patent publication US7026514B2, “Compounds used to treat alcoholism” (Garbil Pharma Investigacion Chile Ltda., priority 2001, dated 2006)

Experiments:
[1] = system: genetically-alcoholic rats, UChB strain; test: Anti-alcoholism activity during a post-treatment period (27 days); assay type: in vivo, Wistar rats; details: 27 days after the 30-day treatment at 40 mg/kg
Method: (§1) The effect of the administration of N,N′-bis(3-aminopropyl)-cyclohexane-1,4-diamine tetramethanesulfonate monohydrate to Wistar rats of both sexes belonging to the UChB strain, at a dose of 40 mg/kg during a treatment period of 30 days, was assessed in an experiment analogous to the one of Example 4. Individual consumptions of alcohol and water, measured daily, were grouped in cycles of 3 consecutive days, thus reducing data to ten average values.
The effect of the administration of N,N′-bis(3-aminopropyl)-cyclohexane-1,4-diamine tetramethanesulfonate monohydrate to Wistar rats of both sexes belonging to the UChB strain, during a post-treatment period of 27 days (9 cycles of 3 days) after the prolonged treatment of Example 5, was assessed in an analogous experiment. […] Therefore, the effect of N,N′-bis(3-aminopropyl)-cyclohexane-1,4-diamine tetramethanesulfonate monohydrate lasts substantially for a long time after a prolonged treatment, without recovering the initial levels of alcohol/water consumption.

[2] = system: metabolism of acetaldehyde; test: Assessment of disulfiram-like adverse effect (blood acetaldehyde after ethanol, gas chromatography); assay type: in vivo, Wistar male rats
Method: The possible disulfiram-like adverse effect of N,N′-bis(3-aminopropyl)cyclohexane-1,4-diamine tetramethanesulfonate monohydrate was studied by gas-chromatographic measurements of the blood concentration of acetaldehyde in standard Wistar male rats, after the intraperitoneal administration of 2.76 g/kg of ethanol in the form of 10% (v/v) aqueous solution. Blood samples were taken from the tail (0.5, 1.0 and 2.0 h after ethanol administration) and from the suprahepatic vein (2.0 h after ethanol administration).

[3] = system: genetically-alcoholic rats, UChB strain; test: Anti-alcoholism activity in genetically-alcoholic rats (3 or 6 day treatment); assay type: in vivo, Wistar rats; details: for lowered alcohol consumption: vs reference period
Description: (§2) As an animal model of alcoholic mammals, including human beings, adult Wistar rats of both sexes, belonging to the UChB strain were used. This strain of rats is the result of a long selection at the University of Chile, and rats belonging to it are known to be volunteer consumers of 10% (v/v) aqueous alcohol (cf. J. Mardones and N. Segovia-Riquelme, “Thirty two years of selection of rats by ethanol preference”: UChA and UChB strains”, Neurobehav. Toxicol. and Teratol. 1983, vol. 5, pp. 171–178). Thus, the rats used in these experiments can be considered genetically alcoholic.
Rats were kept in individual cages at 22° C., with alternative 12 h periods of light and darkness. Besides unlimited access to food, they had ad libitum access to water and 10% (v/v) aqueous alcohol. All experiments were double-blind, and results were analyzed using common statistical methods. As changes in alcohol consumption might be influenced by the eagerness of food and/or water intake, both the consumption of food and of water were measured and analyzed. […] In each experiment the following three periods of time were considered:
a) A reference period, consisting of the three days previous to treatment. The measured consumption values were used as reference for comparison purposes.
b) A treatment period, consisting of the three or six days during which aqueous solutions of the tested compound were intra-gastrically administered, always at the same time of the day. N,N′-bis(3-aminopropyl)cyclohexane-1,4-diamine tetramethanesulfonate monohydrate was administered at two doses, 20 mg/kg of body weight and 40 mg/kg, using aqueous solutions of the tested compound of concentrations 10 g/L and 20 g/L, respectively. Dose of 20 mg/kg was tested both for 3 consecutive days and 6 consecutive days. Dose of 40 mg/kg was tested only for 3 consecutive days.
c) A post-treatment period, consisting of the three days immediate after the treatment period, during which measurement were taken in order to establish the duration of the effect and the reversibility of the changes.

[4] = system: genetically-alcoholic rats, UChB strain; test: Anti-alcoholism activity during a prolonged treatment period (30 days); assay type: in vivo, Wistar rats; details: 40 mg/kg, treatment period of 30 days
Description: as §2
Rats were kept in individual cages at 22° C., with alternative 12 h periods of light and darkness. […] All experiments were double-blind, and results were analyzed using common statistical methods. As changes in alcohol consumption might be influenced by the eagerness of food and/or water intake, both the consumption of food and of water were measured and analyzed. […]
as §1

Row | SMILES | decrease of alcohol consumption at the end of the post-treatment period [1] [%] | levels of acetaldehyde in blood ([2]; 40 mg/kg oral 2, 6, 8 and 24 h before 2.76 g/kg i.p. ethanol, blood at 0.5, 1.0, 2.0 h) | block of the metabolism of acetaldehyde ([2]; conclusion from blood acetaldehyde after ethanol, disulfiram in a control test) | lowered alcohol consumption ([3]; 20 mg/kg intra-gastric for 6 days, first 6 hours after administration, p<0.01) [%] | decrease of alcohol consumption along the post-treatment period ([3]; 40 mg/kg for 3 days, three days after treatment) | lowered alcohol consumption ([3]; 40 mg/kg intra-gastric for 3 days) [%] | decreases of alcohol consumption in the period of 6-24 h ([3]; 6-24 h after administration, compared with first 6 h) | changes in the consumption of both food and water ([3]; 20 or 40 mg/kg, 3 or 6 days) | overall activity as anti-alcoholism agent ([3]; overall results of Example 4) | decrease in alcohol consumption at the end of the treatment period [4] [%] | block of the metabolism of acetaldehyde ([2]; rat, in vivo)
1 | CS(=O)(=O)O.CS(=O)(=O)O.CS(=O)(=O)O.CS(=O)(=O)O.NCCCNC1CCC(NCCCN)CC1.O (centres unmarked) [N,N′-bis(3-aminopropyl)cyclohexane-1,4-diamine tetramethanesulfonate monohydrate] | 24 | did not raised levels of acetaldehyde in blood | does not block the metabolism of acetaldehyde significantly | 25 | this decrease was kept along the post-treatment period | 27 | smaller | not significant | substantial activity as anti-alcoholism agent | 71 | 
2 | CCN(CC)C(=S)SSC(=S)N(CC)CC [disulfiram, tetraethylthiuram disulfide, reference compound] |  |  |  |  |  |  |  |  |  |  | contrary to what happens with disulfiram
